# Experiments:
# HMGA2-DNA interactions [1] = biological target: T1, HMGA2-DNA interactions (Mus musculus, UniProt P52927); assay: AlphaScreen primary uHTS assay of His-tagged HMGA2 binding to biotin-labeled DNA oligomer FL814; design: species or system mammalian; conditions: for inhibition of HMGA2-FL814 interactions / inhibition at 5 µM: LOPAC1280 screen, final concentration of 5 µM; for inhibition of HMGA2-DNA interactions (in words): confirmed hits that do not bind to DNA; for IC50: positive controls, Fig. S1e
# T1 construct: made in house
# T1 sequence (P52927 2-108 limits assumed): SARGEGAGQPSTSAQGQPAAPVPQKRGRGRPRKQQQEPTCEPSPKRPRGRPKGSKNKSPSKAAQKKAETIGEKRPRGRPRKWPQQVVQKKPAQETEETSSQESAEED
# Experimental: To address these limitations, we established a new assay using AlphaScreen technology. The assay entails binding a biotin-labeled DNA oligomer FL814 and His-tagged HMGA2 to streptavidin-coated donor beads and nickel chelate (Ni-NTA) acceptor beads, respectively (Fig. 1). A series of DNA binding studies were performed to determine the optimal conditions for the AlphaScreen Primary Assay (Fig. S1a–d). […] These two inhibitors are readily available for purchase and served as positive controls for HMGA2-DNA interaction inhibition in the assay.
# Using a Labcyte Echo 555 acoustic dispenser 5 nL of DMSO were added to columns 1–4 and 45–48 of a white 1536 well plate, while 5 nL of 2 mM compounds in DMSO were added to columns 5–44. Using a Beckman BioRAPTR FRD bulk reagent dispenser 1 µL of assay buffer (30 mM Citrate, 300 mM NaCl, and 0.005% Tween 20) was added to columns 1 and 2. Next 1 µL of assay buffer containing 125 nM HMGA2 was added to columns 3–48 with a Beckman BioRAPTR FRD bulk reagent dispenser. Finally, 1 µL of assay buffer containing 25 nM FL814 was added to every well of the plate using a Beckman BioRAPTR FRD bulk reagent dispenser. The plate was then centrifuged at 200 × g for 1 min. After 30 min at room temperature, 2 µL of bead buffer (10 mM HEPES, 300 mM NaCl and 0.005% Tween 20) containing 20 µg/mL anti-6xHIS acceptor beads and 20 µg/mL streptavidin donor beads were dispensed into every well using a Beckman BioRAPTR FRD bulk reagent dispenser. The plates were then centrifuged at 200 × g for 1 min. After 1 h at room temperature the plates were read on a Perkin Elmer Envision multimode plate reader in AlphaScreen mode.
# HMGA2 = biological target: T2, HMGA2 (Mus musculus, UniProt P52927); assay: Isothermal titration calorimetry (ITC), titration into HMGA2; assay type: binding, mammalian; conditions: for HMGA2 Binding site: number of sites
# T2 construct: made in house
# T2 sequence (P52927 2-108 limits assumed): T1 sequence (P52927 2-108 limits assumed)
# Experimental: (§1) ITC experiments were conducted using a VP-ITC titration calorimeter (MicroCal, Inc., Northampton, MA) interfaced to a PC. Origin 7.0, supplied by the manufacturer was used for data acquisition. […] The heat liberated or absorbed is observed as a peak corresponding to the power required keeping the sample and reference cells at identical temperatures. The peak produced during the injection is converted to heat output by integration and corrected for cell volume and sample concentration. […] The net enthalpy for the titration reaction was determined by subtraction of the component heats of dilution.
# HMGA2-DNA interactions [2] = biological target: T1, HMGA2-DNA interactions; assay: Protein-DNA interaction ELISA (PDI-ELISA) assay; assay type: binding, mammalian; conditions: for IC50: inhibition of HMGA2-DNA interactions, PDI-ELISA
# Excerpt: The PDI-ELSA assays were described previously[33] and used to determine the inhibition IC50 against HMGA2-DNA interactions. The apparent inhibitory IC50 values were obtained using the following equation: y=min+(max-min/1+10^((x-logIC50)×Hillslope) , where x, y, max, and min represent the inhibitor’s concentration, the inhibition level, the maximum inhibition value, and the minimum inhibition value, respectively.
# [3] = biological target: “AT-hook” peptide 3 (ATHP3) (Homo sapiens, UniProt P52926); assay: Isothermal titration calorimetry (ITC), titration into ATHP3; assay type: binding; conditions: for ATHP3 Ka (M^−1) / ATHP3 Binding site: first line; for ATHP3 Binding site: number of sites
# Experimental: as §1
# HMGA2-DNA interactions [4] = biological target: T1, HMGA2-DNA interactions; assay: LANCE TR-FRET secondary assay of HMGA2 binding to FL814; design: species or system mammalian; concentration or dose not given beside the values; conditions: cherry picked primary hits
# Experimental: In this study, we also developed a LANCE time-resolved fluorescence energy transfer (TR-FRET) assay as a secondary assay for our screening. The His-tagged HMGA2 and biotinylated oligomer FL814 were linked to Europium-labeled anti-6 × His antibody and APC-labeled streptavidin, respectively. A series of DNA binding studies were performed to determine the optimal conditions for the secondary Assay (Fig. S2). After these experiments, 12.5 nM of FL814 and 62.5 nM of HMGA2 were chosen for the assay, which is the same for the primary assay. The assay tolerated up to 0.25% DMSO without any significant change in signal (Fig. S2c). For a counterscreen assay to exclude those compounds that nonspecifically bind to the protein surface, an AlphaScreen assay of H4 peptide binding to bromodomain-containing protein 4 (BRD4) was adopted (Fig. S2e). Since we are looking for compounds with anti-metastasis or anti-obesity activities, compounds with high levels of cytotoxicity are undesirable. […] Furthermore, potential DNA-binding compounds, i.e., DNA intercalators, minor groove binders, and DNA alkylating agents, can be identified by analyzing their chemical structures and will be excluded as well.
# Using a Labcyte Echo 555 acoustic dispenser 5 nL of DMSO were added to columns 1–4 and 45–48 of a white 1536 well plate, while 5 nL of 2 mM compounds in DMSO were added to columns 5–44. Using a Beckman BioRAPTR FRD bulk reagent dispenser 1 µL of assay buffer (10 mM Tris, 300 mM NaCl and 0.005% Tween 20) was added to columns 1 and 2. Next, 1 µL of assay buffer containing 125 nM HMGA2 was added to columns 3–48 with a Beckman BioRAPTR FRD bulk reagent dispenser. Finally, 1 µL of assay buffer containing 25 nM FL814 was added to every well of the plate using a Beckman BioRAPTR FRD bulk reagent dispenser. The plate was then centrifuged at 200 × g for 1 min. After 30 min at room temperature 1 µL of assay buffer containing 250 nM LANCE Ultra ULight-anti-6xHIS and 1 µL of assay buffer containing 12 nM LANCE Eu-W1024 Streptavidin was dispensed into every well using a Beckman BioRAPTR FRD bulk reagent dispenser. The plates were then centrifuged at 200 × g for 1 min. After 1 h at room temperature the plates were read on a Perkin Elmer Envision multimode plate reader in TR-FRET mode (excitation @340 nm, first emission at @665 nm, second emission at 615 nm).
# [5] = system: mouse pre-adipocyte 3T3-L1 cells; design: method as in PMID 25653160; conditions: cited from earlier work
molecule,measurement,setting,value
NC(Cc1cc(O)c(O)cc1O)C(=O)O (racemic) [6-hydroxy-DL-DOPA],inhibition of HMGA2-FL814 interactions,HMGA2-DNA interactions [1],≥ 50%
O=C1c2ccccc2C(=O)c2c(NCCc3ccc(O)cc3)ccc(NCCc3ccc(O)cc3)c21 [JFD00244],inhibition of HMGA2-FL814 interactions,HMGA2-DNA interactions [1],≥ 50%
O=C(Nc1cccc(C(=O)Nc2ccc(S(=O)(=O)O)c3cc(S(=O)(=O)O)cc(S(=O)(=O)O)c23)c1)Nc1cccc(C(=O)Nc2ccc(S(=O)(=O)O)c3cc(S(=O)(=O)O)cc(S(=O)(=O)O)c23)c1 [NF023],HMGA2 Ka (M^−1),HMGA2; first type of binding sites,2.47 ± 4.53 × 10^6 M^−1
same,HMGA2 Binding site,HMGA2; first type,1.74
same,IC50,HMGA2-DNA interactions [2],10600 ± 460 nM
same,ATHP3 Ka (M^−1),[3],9.75 ± 3.47 × 10^6 M^−1
same,ATHP3 Binding site,[3],1
O=C(Nc1cc(C(=O)Nc2ccc(S(=O)(=O)O)cc2)cc(C(=O)Nc2ccc(S(=O)(=O)O)cc2)c1)Nc1cc(C(=O)Nc2ccc(S(=O)(=O)O)cc2)cc(C(=O)Nc2ccc(S(=O)(=O)O)cc2)c1 [NF110],HMGA2 Ka (M^−1),HMGA2; first type of binding sites,2.04 ± 0.48 × 10^8 M^−1
same,HMGA2 Binding site,HMGA2; first type,2.06
same,HMGA2 Binding site,HMGA2; second type,1.77
same,HMGA2 Ka (M^−1),HMGA2; second type of binding sites,7.16 ± 0.67 × 10^5 M^−1
same,IC50,HMGA2-DNA interactions [2],870 ± 39 nM
same,ATHP3 Ka (M^−1),[3],2.17 ± 0.17 × 10^7 M^−1
same,ATHP3 Binding site,[3],1.01
O=C(Nc1cc(C(=O)Nc2ccc(S(=O)(=O)O)cc2S(=O)(=O)O)cc(C(=O)Nc2ccc(S(=O)(=O)O)cc2S(=O)(=O)O)c1)Nc1cc(C(=O)Nc2ccc(S(=O)(=O)O)cc2S(=O)(=O)O)cc(C(=O)Nc2ccc(S(=O)(=O)O)cc2S(=O)(=O)O)c1 [NF449],HMGA2 Ka (M^−1),HMGA2; first type of binding sites,5.53 ± 6.14 × 10^7 M^−1
same,HMGA2 Binding site,HMGA2; first type,0.89
same,HMGA2 Binding site,HMGA2; second type,1.63
same,HMGA2 Ka (M^−1),HMGA2; second type of binding sites,8.17 ± 1.33 × 10^5 M^−1
same,IC50,HMGA2-DNA interactions [2],430 ± 180 nM
same,ATHP3 Ka (M^−1),[3],1.10 ± 7.35 × 10^11 M^−1
same,ATHP3 Binding site,[3],0.86
Nc1ccc(-c2nc3ccc(-c4nc5ccc(N)cc5[nH]4)cc3[nH]2)cc1 [Ro 90-7501],inhibition of HMGA2-DNA interactions,HMGA2-DNA interactions [4],≥ 50%
same,inhibition of HMGA2-FL814 interactions,HMGA2-DNA interactions [1],≥ 50%
same,inhibition of HMGA2-DNA interactions (in words),HMGA2-DNA interactions [1],strongly inhibit HMGA2-DNA interactions
COc1cccc2c1C(=O)c1c(O)c3c(c(O)c1C2=O)C[C@@](O)(C(C)=O)C[C@@H]3O[C@H]1C[C@H](NCc2ccc(CN[C@H]3C[C@H](O[C@H]4C[C@](O)(C(C)=O)Cc5c(O)c6c(c(O)c54)C(=O)c4c(OC)cccc4C6=O)O[C@@H](C)[C@H]3O)cc2)[C@H](O)[C@H](C)O1 [WP631],IC50,HMGA2-DNA interactions [1],48 nM
O=C(O)C1=CC(=C(c2ccc(O)c(C(=O)O)c2)c2ccc(O)c(C(=O)O)c2)C=CC1=O [aurintricarboxylic acid],inhibition of HMGA2-DNA interactions,HMGA2-DNA interactions [4],≥ 50%
same,inhibition at 5 µM,HMGA2-DNA interactions [1],≥ 50%
same,inhibition of HMGA2-DNA interactions (in words),HMGA2-DNA interactions [1],strongly inhibit HMGA2-DNA interactions
N.N.O=C([O-])C1(C(=O)[O-])CCC1.[Pt+2] [carboplatin],inhibition of HMGA2-DNA interactions,HMGA2-DNA interactions [4],≥ 50%
same,inhibition of HMGA2-FL814 interactions,HMGA2-DNA interactions [1],≥ 50%
N.N.[Cl][Pt][Cl] [cisplatin],inhibition of HMGA2-DNA interactions,HMGA2-DNA interactions [4],≥ 50%
same,inhibition of HMGA2-FL814 interactions,HMGA2-DNA interactions [1],≥ 50%
"CN(N=O)c1ccc(O)c(O)c1 [methyl-3,4-dephostatin]",inhibition of HMGA2-FL814 interactions,HMGA2-DNA interactions [1],≥ 50%
O=C1c2c(O)ccc(O)c2C(=O)c2c(NCCNCCO)ccc(NCCNCCO)c21 [mitoxantrone],inhibition of HMGA2-DNA interactions,HMGA2-DNA interactions [4],≥ 50%
same,inhibition at 5 µM,HMGA2-DNA interactions [1],≥ 50%
Cn1cc(NC(=O)c2cc(NC(=O)CN=C(N)N)cn2C)cc1C(=O)NCCC(=N)N [netropsin],differentiation of 3T3-L1 cells into adipocytes,[5],strongly inhibited
same,IC50,HMGA2-DNA interactions [1],22 nM
Nc1c(S(=O)(=O)O)cc(Nc2ccc(Nc3nc(Cl)nc(Nc4cccc(S(=O)(=O)O)c4)n3)c(S(=O)(=O)O)c2)c2c1C(=O)c1ccccc1C2=O [reactive blue-2],inhibition of HMGA2-FL814 interactions,HMGA2-DNA interactions [1],≥ 50%
O=S(=O)([O-])c1cccc2ccccc12.[Na+] [sodium 1-naphthalenesulfonate],binding to HMGA2 (in words),HMGA2,all these chemical compounds except sodium 1-naphthalenesulfonate strongly bind to both HMGA2 and ATHP3
same,inhibition of HMGA2-DNA interactions (in words),HMGA2-DNA interactions [2]; SAR of suramin analogues,all of these analogues except sodium 1-naphthalenesulfonate potently inhibit HMGA2-DNA interactions
same,binding to ATHP3 (in words),[3],all these chemical compounds except sodium 1-naphthalenesulfonate strongly bind to both HMGA2 and ATHP3
C=C1C[C@@]23CC[C@H]4[C@@](C)(CCC[C@@]4(C)C(=O)O)[C@@H]2CC[C@]1(O)C3 [steviol],inhibition at 5 µM,HMGA2-DNA interactions [1],≥ 50%
N#CC(C#N)=C(N)/C(C#N)=C/c1cc(O)c(O)c(O)c1 [tyrphostin 51],inhibition at 5 µM,HMGA2-DNA interactions [1],≥ 50%
NF546,HMGA2 Ka (M^−1),HMGA2; first type of binding sites,1.48 ± 0.47 × 10^7 M^−1
same,HMGA2 Binding site,HMGA2; first type,1.83
same,HMGA2 Binding site,HMGA2; second type,1.98
same,HMGA2 Ka (M^−1),HMGA2; second type of binding sites,3.37 ± 8.81 × 10^5 M^−1
same,IC50,HMGA2-DNA interactions [2],5490 ± 2810 nM
same,ATHP3 Ka (M^−1),[3],4.28 ± 0.47 × 10^6 M^−1
same,ATHP3 Binding site,[3],0.81
indirubin-3′-monoxime,inhibition of HMGA2-FL814 interactions,HMGA2-DNA interactions [1],≥ 50%
